Here are results for four compounds from US11278602B2, “Medicine for Covid-19 and treatment” (Therapeutica Borealis Oy, priority 2020, dated 2022).

The conditions of series [1]: components of the nasal spray; cited from earlier work.
Series [2] in a line: pKa / protonation state of weak base. Conditions: per the Henderson-Hasselbalch equation. The series is classed as physicochemical. The source says:
Nicotine is also known to be a weak base, pH 8.5. It has been shown in earlier in vitro studies that it could inhibit receptor mediated endosytosis. Due to the fact that it is a weak base it could penetrate cell membrane especially at pH near its isoelectric point and thus it may also effect glycosylation at Golgi compartment.

Where only a bound is given, the exact number is not on record here.

For the compound Ivermectin, the solubility in water in series [1] is reported as 50 mg/mL. For the compound `CCN(CC)CCCC(C)Nc1ccnc2cc(Cl)ccc12` (stereo not shown) [chloroquine], the “deprotonated at physiological pH” value in series [2] is “about 10%”. `CCN(CCO)CCCC(C)Nc1ccnc2cc(Cl)ccc12` (stereo not shown) [Hydroxychloroquine]: the solubility in water result in series [1] is listed as “at least 200 mg/mL”. Take Aprotinin: in series [1], the solubility in water is on record as above 10 mg/mL.
